# Reference: patent US20190321496A1, “AGENTS AND METHODS FOR THE DIAGNOSIS AND TREATMENT OF DISEASES ASSOCIATED WITH EXTRACELLULAR MATRIX TURNOVER” (Baker IDI Heart and Diabetes Institute Holdings Limited, priority 2016, published 2019)
# *1 amine or outer side, *2 acyl side, *3 side chain or, on linkers, in order; H or OH if unused. Where no end group is shown, it is not given here. [ ]: non-standard residue; d: D form. The star is where a group is joined. FITC = O=C1OC2(c3ccc(O)cc3Oc3cc(O)ccc32)c2ccc(NC(=S)*)cc21; Cys(Me) = CSC[C@H](N[*:1])C(=O)[*:2]; AEA = NCCOCC(=O)O
# Tests used:
# [1] = test system: areas of localised fibrosis in the myocardium; assay: Ex vivo binding to infarcted mouse myocardium (LAD occlusion); conditions: ex vivo sections of infarcted mouse hearts 6 weeks after LAD ligation
# Description: To assess whether labelled T-peptide can bind to fibrotic myocardium, a mouse model of myocardial infarction (via left anterior descending coronary artery (LAD) occlusion) was used. This model reflects a very defined area of fibrosis in the infarct zone.
# Mice were anaesthetised, the LAD ligated with a suture, and the thorax closed. After 60 mins the suture was removed. After 6 weeks and the development of fibrosis, parts of the infarcted hearts were sectioned and incubated with the T-peptide-FITC and control (s)-peptide-FITC constructs.
# [2] = test system: stable aortic arch plaques; assay: Ex vivo binding to frozen sections of stable aortic arch plaques; parameters: species or system mouse; conditions: 0.1 mg/ml conjugate, 60 minutes, FITC channel fluorescence microscopy
# Description: (§1) Conjugates of T-peptide (TLTYTWS)-FITC (Alexa 488) and control peptide (Con-peptide)-FITC were commercially synthesized (GL Biochem, Shanghai China) using solid phase peptide synthesis, as described above. The concentration of the synthesized peptide-FITC conjugates was 1 mg/ml.
# (§2) At 12 weeks of age and 6 weeks after commencement of high fat diet, ApoE−/− mice (C57BL/6J background) were anaesthetized by intraperitoneal injection of a mixture of ketamine (100 mg/kg) and xylazine (10 mg/kg). An incision was made in the neck and the right common carotid artery exposed by dissecting away circumferential connective tissue. A tandem stenosis with 150 μm outer diameter was introduced with the distal stenosis placed 1 mm from the carotid artery bifurcation and the proximal stenosis 3 mm from the distal stenosis. A 6-0 blue braided polyester fibre suture was tied around the carotid artery and a 150 μm needle to achieve the stenosis diameter of 150 μm and the needle was subsequently removed after the suture was secured. The incision wound was sutured close and the mice resumed their high fat diet. […]
# (§3) Frozen […] tissue sections of tandem stenosis mouse carotid unstable plaques and aortic arch stable plaques on glass slides were thawed for 30 minutes at room temperature. […] The slides were then examined by fluorescence microscopy (IX81 Olympus microscope) in the FITC 488 nm channel.
# [3] = test system: stable plaque (aortic arch segment 5); assay: In vivo binding to stable aortic arch plaque after intravenous administration to tandem stenosis mice; parameters: species or system mouse; conditions: tandem stenosis ApoE-/- mice, bolus plus infusion into jugular vein, tissue taken 30 minutes after administration
# Description: (§4) The T-peptide-FITC (Alexa 488) and its control scrambled peptide Con-peptide-FITC were commercially synthesized (GL Biochem. Shanghai China) using solid phase peptide synthesis, as described elsewhere herein. The concentration of the synthesized peptides were all at 1 mg/ml,
# (§5) Each mouse with an average weight of 25 g, would receive […] of T-peptide-FITC or […] of Con-peptide-FITC diluted 1:2 to give concentration of 0.5 mg/ml, which works out to be […] body weight, […] of the diluted peptide will be given as a bolus into the left external jugular vein and the remaining […] by infusion at a rate of […] using an infusion pump connected to a plastic catheter inserted into the left external jugular vein. The method of bolus dose followed by infusion is to optimize the blood level and duration of the circulating peptide to enhance plaque entry and vascular tissue retention of the peptide, since the small molecular weight of the peptide is at risk of rapid clearance through the kidneys. […]
# (§6) The frozen section slides were thawed for 30 minutes at room temperature before examination under the fluorescence microscope (IX81 Olympus microscope) in the FITC 488 nm channel.
# intact collagen IV = assay: In vitro binding to undigested collagen IV coated glass slides; parameters: species or system human; conditions: 0.1 mg/ml, 60 minutes, room temperature
# Description: (§7) T-peptide-FITC (Alexa 488) and control peptide-FITC conjugates, as well as the unlabelled T-peptide-LPETG peptide, were commercially synthesized (GL Biochem. Shanghai, China) using solid phase peptide synthesis, as described elsewhere herein. The concentration of the synthesized peptides were all at 1 mg/ml.
# Binding to MMP2 digested collagen IV Collagen IV was applied to glass slides coated with polylysine. 1. Polylysine (MW of 30,000-70,000) at 0.1 mg/ml in 0.15 M borate buffer (pH 8.3) was prepared and filtered with […] pore size membrane syringe filter (Millex® Syringe Filter, Millipore). 2. Collagen IV (collagen type IV from human fibroblast culture, Sigma. Aldrich) was diluted to 1:10 with Hank's Balanced Salt Solution (HBSS) to 0.04 mg/ml. 3. For MMP2 digestion, Active recombinant human MMP2 enzyme (expressed in CHO cells) was purchased from Calbiochem. MMP2 stock solution was diluted with PBS to create 0.01 μg/μl MMP2 concentration according to manufacturer's recommendations. 4. For T-peptide-HTC testing using added MMP2, 20 μl of polylysine was spotted on several glass slides and left overnight at room temperature to dry. This forms a coating base for collagen to adhere to subsequently. 5. […] All the treated slides were examined under fluorescence microscopy (IX81 Olympus microscope).
# [4] = test system: MMP2-predigested collagen IV; assay: In vitro binding to MMP2-predigested collagen IV coated glass slides; parameters: species or system human; conditions: for FITC signal on MMP2-predigested collagen IV coated glass slide: 0.1 mg/ml, room temperature
# Description: as §7
# Binding to MMP2 digested collagen IV Collagen IV was applied to glass slides coated with polylysine. 1. Polylysine (MW of 30,000-70,000) at 0.1 mg/ml in 0.15 M borate buffer (pH 8.3) was prepared and filtered with […] pore size membrane syringe filter (Millex® Syringe Filter, Millipore). 2. Collagen IV (collagen type IV from human fibroblast culture, Sigma. Aldrich) was diluted to 1:10 with Hank's Balanced Salt Solution (HBSS) to 0.04 mg/ml. 3. For MMP2 digestion, Active recombinant human MMP2 enzyme (expressed in CHO cells) was purchased from Calbiochem. MMP2 stock solution was diluted with PBS to create 0.01 μg/μl MMP2 concentration according to manufacturer's recommendations. 4. For T-peptide-HTC testing using added MMP2, 20 μl of polylysine was spotted on several glass slides and left overnight at room temperature to dry. This forms a coating base for collagen to adhere to subsequently. 5. To predigest some collagen IV with MMP2, 3 μl of (0.1 mg/ml ) MMP2 was mixed with 35.8 μl of diluted collagen IV solution with 1.2 μl of 100 mM CaCl2 (3 mM Calcium final concentration) in an Eppendorf tube and incubated at 37° C. shaking at 600 rpm in an Eppendorf Thermomixer for 2 hours. 6. To create intact collagen IV coated slides, […] of diluted collagen IV solution was dropped onto the dried polylysine spot on the slide. 7. To create MMP2 predigested collagen IV coated slides, […] predigested collagen IV was dropped onto the dried polylysine spot on the glass slide. 8. The slides with collagen IV were dried uncovered overnight before testing. 9. Next day, […] of T-peptide-FITC (0.1 mg/ml) was added to the MMP2 predigested collagen spot, […] of T-peptide-FITC (0.1 mg/ml) was added to the intact collagen slide, and […] Control peptide-FITC (0.1mg/ml) was added to the MMP2 predigested collagen slide and the slides were incubated in a covered humidified box with wet paper towels at room temperature for 60 minutes. 10. For the ‘blocked epitope’ slide, […] of unlabelled T-peptide-LPETG (0.1 mg/ml) was added to the MMP2 predigested collagen slide and incubated similarly for 60 minutes. This step binds the epitopes present on the collagen IV and prevents further binding with the FITC labelled T-peptide. Next, […] of T-peptide-FITC (0.1 mg/ml) was added to the same area and incubated for 60 minutes. 11. All the treated slides were examined under fluorescence microscopy (IX81 Olympus microscope).
# [5] = test system: unstable plaque (right common carotid artery segment 1); assay: In vivo binding to unstable plaque after intravenous administration to tandem stenosis mice; parameters: species or system mouse; conditions: tandem stenosis ApoE-/- mice, bolus plus infusion into jugular vein, tissue taken 30 minutes after administration
# Description: as §4, §5, §6
# [6] = test system: unstable plaque in the mouse carotid artery; assay: Ex vivo binding to frozen sections of tandem stenosis mouse carotid unstable plaques; conditions: 0.1 mg/ml conjugate, 60 minutes, FITC channel fluorescence microscopy
# Description: as §1, §2, §3
Substance,binding to fibrotic myocardium [1],binding to stable plaque (fluorescent signal) [2],binding to the stable aortic arch plaque after intravenous administration [3],FITC signal on undigested collagen IV coated glass slide (intact collagen IV),FITC signal on MMP2-predigested collagen IV coated glass slide ([4]; 60 minutes),"FITC signal on MMP2-predigested collagen IV slide preincubated with unlabelled T-peptide ([4]; blocked epitope slide: unlabelled T-peptide-LPETG 0.1 mg/ml 60 minutes, then T-peptide-FITC 0.1 mg/ml 60 minutes)",binding to the unstable plaque following intravenous administration [5],binding to unstable plaque (fluorescent signal) [6],binding to MMP2-predigested collagen IV fibres with additional amino acids at the N terminus [4],"blocking of T-peptide-FITC binding to MMP2-predigested collagen IV ([4]; preincubation 0.1 mg/ml, 60 minutes)"
H-TLTYTWSGK(FITC)-OH (SMILES CC(C)C[C@H](NC(=O)[C@@H](N)[C@@H](C)O)C(=O)N[C@H](C(=O)N[C@@H](Cc1ccc(O)cc1)C(=O)N[C@H](C(=O)N[C@@H](Cc1c[nH]c2ccccc12)C(=O)N[C@@H](CO)C(=O)NCC(=O)N[C@@H](CCCCNC(=S)Nc1ccc2c(c1)C(=O)OC21c2ccc(O)cc2Oc2cc(O)ccc21)C(=O)O)[C@@H](C)O)[C@@H](C)O) [T-peptide-FITC conjugate],binds specifically to areas of localised fibrosis in the myocardium,no fluorescent signal within the vascular lumen,no binding,no FITC signal,strong FITC signal,no significant FITC signal,strong binding,strong fluorescent signal within the lumen,–,–
"H-GLGYGWSGK(FITC)-OH (SMILES CC(C)C[C@H](NC(=O)CN)C(=O)NCC(=O)N[C@@H](Cc1ccc(O)cc1)C(=O)NCC(=O)N[C@@H](Cc1c[nH]c2ccccc12)C(=O)N[C@@H](CO)C(=O)NCC(=O)N[C@@H](CCCCNC(=S)Nc1ccc2c(c1)C(=O)OC21c2ccc(O)cc2Oc2cc(O)ccc21)C(=O)O) [control peptide-FITC conjugate, reference compound]",no evidence of binding,–,–,–,no FITC signal,–,no evidence of binding,no significant binding,–,–
GGGWWSSASPAATLTYTWSGLPAPASPA-eeeeeeee-(Aop)-PLGC(Me)AG-rrrrrrrrr-GAGAPAC (GGGWWSSASPAATLTYTWSGLPAPASPA[dE][dE][dE][dE][dE][dE][dE][dE][AEA]PLG[Cys(Me)]AG[dR][dR][dR][dR][dR][dR][dR][dR][dR]GAGAPAC) [GGG-T-peptide-ACPP-cysteine],–,–,–,–,–,–,–,–,did not reduce or eliminate binding,–
HTLTYTWSGGGLPETGGHHHHHH-OH [T-peptide-LPETG],–,–,–,–,–,–,–,–,–,blocked binding
